Measured values reported in US8404646B2, “Methods for preventing or treating mitochondrial permeability transition” (Cornell Research Foundation, Inc., priority 2003, dated 2013).
Entries after “also recorded” stand apart in the source; their conditions may differ.

Tests used:
Caco-2 = assay: Cellular uptake of [3H][Dmt1]DALDA into cell monolayers; type: cell-based, human
Description: (§1) The cellular uptake of [^3H][Dmt^1]DALDA was studied using a human intestinal epithelial cell line (Caco-2), and confirmed with SH-SY5Y (human neuroblastoma cell), HEK293 (human embryonic kidney cell) and CRFK cells (kidney epithelial cell). Monolayers of cells were grown on 12-well plates (5×10^5 cells/well) coated with collagen for 3 days. On day 4, cells were washed twice with pre-wanned HBSS, and then incubated with 0.2 ml of HBSS containing either 250 nM [^3H][Dmt^1]DALDA at 37° C. or 4° C. for various times up to 1 h.
In a separate experiment, cells were incubated with a range of [Dmt^1]DALDA concentrations (1 μM-3 mM) for 1 h at 37° C. At the end of the incubation period, cells were washed 4 times with HBSS, and 0.2 ml of 0.1N NaOH with 1% SDS was added to each well. The cell contents were then transferred to scintillation vials and radioactivity counted. To distinguish between internalized radioactivity from surface-associated radioactivity, an acid-wash step was included. Prior to cell lysis, cells were incubated with 0.2 ml of 0.2 M acetic acid/0.05 M NaCl for 5 min on ice.

HEK293 = assay: Cellular uptake of [3H][Dmt1]DALDA, confirmation; type: cell-based, human
Description: as §1

SH-SY5Y = assay: Cellular uptake of [3H][Dmt1]DALDA, confirmation; type: cell-based, human
Description: as §1

CRFK cells = assay: Cellular uptake of [3H][Dmt1]DALDA, confirmation; type: cell-based
Description: as §1

[1] = tested on: isolated mouse liver mitochondria; assay: Uptake into isolated mitochondria (fluorescence quenching, radioactivity in pellet); type: in vitro ADME
Description: (FIG. 1A) Mitochondrial uptake of SS-19 was determined using fluorescence spectrophotometry (ex/em=320/420 nm). […] Pretreatment of mitochondria with FCCP (1.5 μM) reduced quenching by <20% (black line). […] Uptake was stopped by centrifugation (16000×g) for 5 min at 4° C., and radioactivity determined in the pellet. […] Data are shown as mean±s.e.; n=3. *, P<0.05 by Student's t-test. […] Black line, TMRM; red line, SS-19.
To isolate mitochondria from mouse liver, mice were sacrificed by decapitation. The liver was removed and rapidly placed into chilled liver homogenization medium. The liver was finely minced using scissors and then homogenized by hand using a glass homogenizer.
The homogenate was centrifuged for 10 min at 1000×g at 4° C. The supernatant was aspirated and transferred to polycarbonate tubes and centrifuged again for 10 min. at 3000×g, 4° C. The resulting supernatant was removed, and the fatty lipids on the side-wall of the tube were carefully wiped off.
The pellet was resuspended in liver homogenate medium and the homogenization repeated twice. The final purified mitochondrial pellet was resuspended in medium. Protein concentration in the mitochondrial preparation was determined by the Bradford procedure.
Approximately 1.5 mg mitochondria in 400 μl buffer was incubated with [^3H][Dmt^1]DALDA for 5-30 min at 37° C. The mitochondria were then centrifuged down and the amount of radioactivity determined in the mitochondrial fraction and buffer fraction. […] Thus [Dmt^1]DALDA is concentrated in mitochondria.
Thus uptake of [Dmt^1, AtnDap^4]DALDA was not potential-dependent.
To confirm that the mitochondrial targeting was not an artifact of the fluorophore, we also examined mitochondrial uptake of [^3H][Dmt^1]DALDA. Isolated mitochondria were incubated with [^3H][Dmt^1]DALDA and radioactivity determined in the mitochondrial pellet and supernatant.
We next examined the effect of mitochondrial swelling on the accumulation of [Dmt^1, AtnDap^4]DALDA in mitochondria by using alamethicin to induce swelling and rupture of the outer membrane. […] Thus, [Dmt^1]DALDA is associated with mitochondrial membranes.

[2] = Estimated concentration in isolated perfused guinea pig hearts; details: coronary perfusate 0.1 μM
[3] = tested on: isolated mouse liver mitochondria; assay: Mitochondrial respiration (oxygen consumption); type: biochemical; details: 100 μM
[4] = tested on: mitochondrial permeability transition (MPT) in isolated mitochondria; assay: Mitochondrial membrane potential and MPT measured with TMRM; type: biochemical, mouse; details: for mitochondrial potential / MPT on addition of peptide alone: 200 μM, TMRM; for tolerance of mitochondria to cumulative Ca2+ additions prior to MPT: 50 and 100 μM
Description: In addition to having no direct effect on mitochondrial potential, [Dmt^1]DALDA was able to protect against MPT induced by Ca^2+ overload.
3-Nitropropionic acid (3NP) is an irreversible inhibitor of succinate dehydrogenase in complex II of the electron transport chain. Addition of 3NP (1 mM) to isolated mitochondria caused dissipation of mitochondrial potential and onset of MPT (FIG. 2C).

Caco-2 cells = assay: 3NP-induced mitochondrial depolarization in cells (TMRM, LSCM); type: cell-based, human; details: 3NP 10 mM, peptide 0.1 μM, 4 h
From the text: In control cells, the mitochondria are clearly visualized as fine streaks throughout the cytoplasm.

isolated mitochondria [5] = assay: Mitochondrial swelling (absorbance 540 nm or light scattering 570 nm); type: biochemical, mouse
Description: (§2) MPT pore opening results in mitochondrial swelling. We examined the effects of [Dmt^1]DALDA on mitochondrial swelling by measuring reduction in absorbance at 540 nm (A540). The mitochondrial suspension was then centrifuged and cytochrome c in the mitochondrial pellet and supernatant determined by a commercially-available ELISA kit.
(§3) The methods for study are as described above for SS-02. In this example, mitochondrial swelling was measured using light scattering monitored at 570 nm.

isolated mitochondria [6] = assay: Cytochrome c release from isolated mitochondria (ELISA); type: biochemical, mouse; details: Ca2+ overload
Description: as §2, §3

[7] = tested on: isolated perfused guinea pig heart; assay: Ischemia-reperfusion myocardial stunning in isolated perfused heart (Langendorff); details: 100 nM, 30 min global ischemia
Description: Guinea pig hearts were rapidly isolated, and the aorta was cannulated in situ and perfused in a retrograde fashion with an oxygenated Krebs-Henseleit solution (pH 7.4) at 34° C. The heart was then excised, mounted on a modified Langendorff perfusion apparatus, and perfused at constant pressure (40 cm H2O). Contractile force was measured with a small hook inserted into the apex of the left ventricle and the silk ligature tightly connected to a force-displacement transducer. Coronary flow was measured by timed collection of pulmonary artery effluent.
Reperfusion was carried out with the same solution used prior to ischemia.

[8] = tested on: isolated guinea pig hearts; assay: Organ preservation: peptide in cardioplegic solution, prolonged ischemia of isolated heart; details: in St. Thomas cardioplegic solution 3 min, 90 min ischemia, 60 min reperfusion; listed as [Dmt^1]DALDA
Description: We examined whether [Dmt^1]DALDA prolongs survival of organs. In this study, [Dmt^1]DALDA was added to a commonly used cardioplegic solution (St. Thomas) to determine whether [[Dmt^1]DALDA enhances survival of the heart after prolonged ischemia (model of ex vivo organ survival).
Isolated guinea pig hearts were perfused in a retrograde fashion with an oxygenated Krebs-Henseleit solution at 34° C. After 30 min. of stabilization, the hearts were perfused with a cardioplegic solution CPS (St. Tohomas) with or without [Dmt^1]DALDA at 100 nM for 3 min. Global ischemia was then induced by complete interruption of coronary perfusion for 90 min. Reperfusion was subsequently carried out for 60 min. with oxygenated Krebs-Henseleit solution. Contractile force, heart rate and coronary flow were monitored continuously throughout the experiment.

[9] = tested on: several mammalian cell types; details: energy-independent manner; cited from earlier work

2′,6′-dimethyltyrosine-D-Arg-Phe-Lys-NH2 [SS-02]
time at which [3H][Dmt1]DALDA was first observed in cell lysate (Caco-2; 250 nM, Caco-2): 5 min | time to steady state levels in cell lysate (Caco-2; 250 nM, Caco-2): ≤ 30 min | total amount recovered in the cell lysate, of the total drug (Caco-2; after 1 h incubation): about 1% | uptake at 4° C. compared to 37° C. (Caco-2; by 45 min): 76.5% | uptake at 4° C. compared to 37° C. (Caco-2; by 1 h): 86.3% | internalization (HEK293): observed | internalization (SH-SY5Y): observed | internalization (CRFK cells): observed | decrease of radioactivity associated with mitochondrial pellet by FCCP ([1]; 37° C., 2 min): ~20% | amount of radioactivity in the pellet over time ([1]; from 2 min to 8 min): did not change | Concentration of [Dmt1]DALDA in mitochondria [2]: 1.0 mM | Concentration of [Dmt1]DALDA in myocyte [2]: 5 µM | oxygen consumption during state 3 or state 4 [3]: did not alter | mitochondrial potential / MPT on addition of peptide alone [4]: did not alter mitochondrial potential | mitochondrial potential / MPT on addition of peptide alone ([4]; listed as [Dmt^1]DALDA): did not cause mitochondrial depolarization or MPT | onset of MPT induced by 3NP ([4]; 1 mM 3NP, 0.5, 5, 50 μM peptide): dose-dependently delayed | tolerance of mitochondria to cumulative Ca2+ additions prior to MPT [4]: increased mitochondrial tolerance | tolerance of mitochondria to cumulative Ca2+ additions prior to MPT ([4]; listed as [Dmt^1]DALDA): dose-dependently increased | MPT induced by Ca2+ overload ([4]; pretreatment 10 μM): prevented onset of MPT | mitochondrial depolarization caused by 3NP in cells (Caco-2 cells): protected against mitochondrial depolarization | mitochondrial swelling induced by Ca2+ (isolated mitochondria [5]; 200 μM Ca2+, absorbance at 540 nm): inhibited swelling; also recorded: dose dependently inhibited | mitochondrial swelling induced by MPP+ (isolated mitochondria [5]; MPP+ 300 μM): prevented mitochondrial swelling; also recorded: inhibited mitochondrial swelling | Ca2+-induced release of cytochrome c (isolated mitochondria [6]): inhibited | myocardial contractile force during ischemia-reperfusion [7]: tolerated ischemia much better than buffer-treated hearts; also recorded: protects myocardial contractile force | contractile function after prolonged ischemia [8]: significantly enhanced; also recorded: significantly improved | penetration of the plasma membrane [9]: readily penetrates the plasma membrane
